Assays:
[1] = test system: Rat Limb Bones (basal bone resorption); assay: Basal Bone Resorption Assay: 45Ca Release from Rat Limb Bones; assay type: cell-based
Description: The purpose of this assay is to test stimulators and inhibitors of bone resorption in vitro. The release of ^45 Ca from in vitro labeled murine bone explants into the culture media is taken as an index of bone resorption.
Rat pups are labelled […] by injecting pregnant dams (18 days) with 100 μCi of ^45 Ca.
Two days after the initiation of labelling, the dam is anesthetized with halothane and killed by cervical dislocation. The pups are ablated and quickly decapitated. The calvaria (frontal and parietal bones), forelimbs (containing radii and ulnae), and hind limbs (tibiae) are removed and placed in control media in a petri dish. Bones are debrided of soft tissue by a combination of blunt dissection, and gentle rolling on bibulous paper, taking care not to disturb the periosteum. Cartilaginous ends are cut off long bones. Calvaria are cut in half along midline suture. Bones are separated into 3 categories: calvaria halves, Tibiae and ulnae/radii. Groups of eight (per bone group) are randomly placed in 24-well culture plates containing 0.5 mL of control media. Cultures are maintained at 37° C. in a humidified incubator of 95% air: 5% CO2.
These bones are incubated for 24 hours, media is aspirated from the bones and replaced with fresh media containing test substances. Each bone group has a control group of 8 and a dead bone group of 8. The devitalized cultures are obtained by heating the bones in medium at 55° C. for 60 minutes. The bones are incubated at 37° C. for an additional 72 hours. At the end of this period a 100 microliter aliquot of media is removed and placed in a scintillation vial. Ten mL of Aquasol is added, the ^45 Ca is quantified in a scintillation spectrometer. Bones are rinsed in saline, placed in a scintillation vial, hydrolyzed overnight in 0.75 mL 6N HCl at room temperature. The hydrolyzed bone solution is neutralized by the addition of 2.25 mL of 2N NaOH, followed by 10 mL of Aquasol, the ^45 Ca content is determined by scintillation spectrometry.
Analysis: ^45 Ca release into culture medium from the 24-96 hour period is individually compared to ^45 Ca release in control cultures and to devitalized bone via Dunnett's test. […]

[2] = test system: Rat Limb Bones (PTH induced bone resorption); assay: Bone Resorption Assay: 45Ca Release from Rat Limb Bones (PTH Induced); assay type: cell-based, rat (Sprague-Dawley CD); settings: 10 μg/mL
Procedure: The purpose of this assay is to identify compounds that inhibit basal or stimulated bone resorption in culture.
The ability of 2-substituted-imidazo[4,5-c]pyridines to modify the process of bone resorption was evaluated essentially as described by L.G. Raisz, Bone resorption in tissue culture. Factors influencing the response to parathyroid hormone.
Timed pregnant Sprague-Dawley CD® rats (Charles River) are administered 100 μCi ^45 CaCl2 (NEN calcium -45 NEZ-013) in 100 μL of 0.9% saline, subcutaneously, on day 18 of gestation. The rats are sacrificed the following day by CO2 asphyxiation. The fetuses are removed and the right forelimbs excised and placed in a Petri dish containing ice cold explant medium consisting of modified BGJb -Fitton Jackson media (custom formulation, Gibco No. 78-0088) adjusted to pH 7.3 to which 10 mM TES is added. […] Under a dissecting microscope, the bones are gently cleaned of adherent tissue and the cartilaginous ends removed. Incubation and drug treatment. […] The preincubation medium is brought to 37° C. prior to transfer of bones. The preincubation medium consists of the modified BGJb medium (with salts and glucose as above), pH 7.3, containing 29 mM NaHCO3. […] For compounds that require nonaqueous solvents, dilutions are made from the appropriate stock solution with medium. In these instances, basal and bone resorption stimulated controls exposed to an equivalent concentration of the vehicle are included. […] The right ulna and radius from each fetus are used. Both bones are subjected to the same treatment and each treatment group consists of bones from 4 or more fetuses. Treatments are randomly assigned using a preclinical statistics program (PS-ALLOC). After a 48 hour incubation at 37° C. in 5% CO2, the bones are removed from the medium and extracted in 0.5 mL of 0.1N HCl for 1 or more days. Duplicate 150 μL aliquots of the incubation medium and the bone extract are analyzed for ^45 Ca radioactivity in 5 mL of liquid scintillation cocktail.
The percentage of bone ^45 Ca released into the medium is determined as follows: [formula] […]

[3] = test system: osteopenia induced by denervation of the sciatic nerve in rats; assay: Denervation Induced Osteopenia in Rats; assay type: in vivo, rat (female Sprague Dawley CD)
Description: The purpose of this assay is to evaluate the effect, in rats, of agents on the reduction in bone mass (osteopenia) induced by immobilization resulting from surgical severance (denervation) of the sciatic nerve.
The animals are housed in plastic cages (4 or 5 rats/cage) with food (rat purina 500 chow) and water ad libitum; 14/10 day/night cycle.
After one week of in-house acclimatization, the animals are randomly divided into groups of 6 to 10 rats/group. Each rat is weighed, anesthetized with an intraperitoneal administration of 100 mg/kg ketamine (Bristol Laboratories, Syracuse, N.Y.) and 0.75 mg/kg Acepromazine (Aveco, Ft. Dodge, Iowa). The left hind limb is shaved and denervated by making a lateral incision parallel to the femur and by surgically removing half of a centimeter of the sciatic nerve adjacent to caudofemoralis and adductor brevis muscles. The incision is closed with wound clips. After surgery, the rats are housed in cages with absorbent bedding to minimize additional trauma to the immobilized limb. A 24 hour post-surgery recovery period is allowed before the initiation of the drug treatment.
The concentration of the drug stock is calculated to be delivered in a volume of 0.1 mL/100 gram body weight. The drug solution or a uniform suspension is prepared in 1% Tween 80 in normal saline. The drugs are administered via oral or parenteral routes daily (five times a week) for four weeks.
A sequential triple labeling of mineralized tissue is employed to determine the osseous changes (especially the bone formation) and the mineralization rates. Each animal is administered 90 mg/kg Xylenol orange (Fisher Scientific Company), S.C., 15 mg/kg Calcein (Sigma Chemical Company), S.C. and 15 mg/kg Demeclocycline (Sigma Chemical Company), i.p., approximately 21 days, 10 days and 2 days prior to the termination of the study, respectively.
At the end of the fourth week, each rat is weighed, anesthetized with an intraperitoneal administration of 100 mg/kg ketamine with 0.75 mg/kg Acepromazine and approximately 4 mL of blood collected via cardiac puncture. The anesthetized rats are euthanized by exposure to carbon dioxide. The femora and tibiae from both limbs are dissected free of soft tissue. (i) Femora are ashed at ~1100° C. for 16 hours using a muffle furnace. --(ii) Proximal tibia are fixed, dehydrated and embedded undecalcified in a methyl methacrylate-glycol methacrylate mixture. Longitudinal tissue sections (10 microns) are prepared on a Polycut S microtome (Reichert). Staining is performed on free-floating sections using a modified Goldner's stain, which are then mounted and coverslipped.
Cancellous bone content in the proximal tibia is quantified (as two dimensional bone mineral area [B.Ar]) with an image analysis processing device (software developed by Drexel University).
The areas of the tibia selected for cancellous bone content evaluation are the primary and secondary spongiosa. To select and standardize this area for evaluation, the epiphyseal growth plate-metaphyseal junction is oriented parallel to the abscissa of the digitizing screen. Bone elements 1.7 mm (secondary spongiosa) and 0.2 mm (primary spongiosa) from the growth plate and equidistant from the flanking cortical elements are then quantified as described above. The total area evaluated is 2.30 mm wide and 1.45 mm deep, constituting a 3.34 mm^2 area.
Body weight, femur mass (dried or ashed) and trabecular (cancellous) bone mineral area (B.Ar) are determined.
The difference (both absolute and percent change) in femur mass and bone mineral area between intact (control) and denervated limbs of a treatment group are compared with that for the vehicle group using a one-way analysis of variance with Dunnett's test, or other multiple comparison methods.
The results are reported in Table I and II under the heading In Vivo.

SMILES | Inhibition of Bone Resorption, Basal ([1]; Table II, 10 μg/mL) | Inhibition of Bone Resorption, PTH Induced ([2]; Table I) | Inhibition of Bone Resorption, Basal ([1]; Table I, 10 μg/mL) | Inhibition of Bone Resorption, In Vivo ([3]; po, 672 h) | Inhibition of Bone Resorption, PTH Induced ([2]; Table II) | other results
c1ccc(CSc2nc3cnccc3[nH]2)cc1 [Example 11, 2-[[(Phenyl)methyl]thio]-1H-imidazo[4,5-c]pyridine] | Inactive | – | – | – | – | –
[O-][S+](Cc1cccc(OCc2ccccc2)c1)c1nc2cnccc2[nH]1 (centres unmarked) [Example 23] | – | Active | Active | Inactive | – | –
c1ccc(COc2cccc(CSc3nc4cnccc4[nH]3)c2)cc1 [Example 22, 2-[[[3-(Phenylmethoxy)phenyl]methyl]thio]-1H-imidazo[4,5-c]pyridine] | Inactive | – | – | – | Active | –
[O-][S+](Cc1cc2c(cc1Cl)OCO2)c1nc2cnccc2[nH]1 (centres unmarked) [Example 25] | – | Active | Active | Inactive | – | –
[O-][S+](Cc1cccc(C(F)(F)F)c1)c1nc2cnccc2[nH]1 (centres unmarked) [Example 8, 2-[[[3-(Trifluoromethyl)phenyl]methyl]-sulfinyl]-1H-imidazo[4,5-c]pyridine] | – | Active | – | – | – | Inhibition of Bone Resorption, Basal ([1]; Table I, concentration not given): Inactive
c1ccc(CCSc2nc3cnccc3[nH]2)cc1 [Example 13, 2-[(2-Phenylethyl)thio]-1H-imidazo[4,5-c]pyridine] | Inactive | – | – | – | Inactive | –
Cc1cc(C)c(C[S+]([O-])c2nc3cnccc3[nH]2)c(C)c1 (centres unmarked) [Example 19, 2-[[(2,4,6-Trimethylphenyl)methyl]sulfinyl]-1H-imidazo[4,5-c]pyridine] | – | Active | Active | Inactive | – | –
[O-][S+](Cc1ccc(Cl)c(Cl)c1)c1nc2cnccc2[nH]1 (centres unmarked) [Example 6, 2-[[(3,4-Dichlorophenyl)methyl]sulfinyl]-1H-imidazo[4,5-c]pyridine] | – | Active | Active | – | – | –
[O-][S+](Cc1ccc(Br)cc1F)c1nc2cnccc2[nH]1 (centres unmarked) [Example 21, 2-[[(4-Bromo-2-fluorophenyl)methyl]sulfinyl]-1H-imidazo[4,5-c]pyridine] | – | Active | Active | Inactive | – | –
[O-][S+](Cc1ccccc1)c1nc2cnccc2[nH]1 (centres unmarked) [Example 12, 2-[[(Phenyl)methyl]sulfinyl]-1H-imidazo-[4,5-c]pyridine] | – | Active | Active | Inactive | – | –
Fc1c(F)c(F)c(CSc2nc3cnccc3[nH]2)c(F)c1F [Example 32, 2-[[(Pentafluorophenyl)methyl]thio]-1H-imidazo[4,5-c]pyridine] | Inactive | – | – | – | Inactive | Inhibition of Bone Resorption, In Vivo ([3]; Table II, 25 mg/kg, p.o.): Inactive
[O-][S+](Cc1c(F)cccc1Cl)c1nc2cnccc2[nH]1 (centres unmarked) [Example 10, 2-[[(2-Chloro-6-fluorophenyl)methyl]-sulfinyl]-1H-imidazo[4,5-c]pyridine] | – | Active | Active | Inactive | – | –
COc1ccc(CSc2nc3cnccc3[nH]2)cc1 [Example 26, 2-[[(4-Methoxyphenyl)methyl]thio]-1H-imidazo[4,5-c]pyridine] | Inactive | – | – | – | Active | Inhibition of Bone Resorption, In Vivo ([3]; Table II, 25 mg/kg, p.o.): Inactive
Clc1ccc(CSc2nc3cnccc3[nH]2)cc1Cl [Example 5, 2-[[(3,4-Dichlorophenyl)methyl]thio]-1H-imidazo[4,5-c]pyridine] | Inactive | – | – | – | – | –
Fc1cc(Br)ccc1CSc1nc2cnccc2[nH]1 [Example 20, 2-[[(4-Bromo-2-fluorophenyl)methyl]thio]-1H-imidazo[4,5-c]pyridine] | Inactive | – | – | – | Active | –
Fc1cccc(Cl)c1CSc1nc2cnccc2[nH]1 [Example 9, 2-[[(2-Chloro-6-fluorophenyl)methyl]thio]-1H-imidazo[4,5-c]pyridine] | Inactive | – | – | – | Inactive | –
FC(F)(F)c1cccc(CSc2nc3cnccc3[nH]2)c1 [Example 7, 2-[[[3-(Trifluoromethyl)phenyl]methyl]thio]-1H-imidazo[4,5-c]pyridine] | Active | – | – | – | – | –
[O-][S+](CCc1ccccc1)c1nc2cnccc2[nH]1 (centres unmarked) [Example 14, 2-[(2-Phenylethyl)sulfinyl]-1H-imidazo[4,5-c]pyridine] | – | Active | Active | – | – | –

— patent publication US5081253A, “Imidazo(4,5-C)pyridines as antiosteoporotic agents” (American Home Products Corporation, priority 1990, dated 1992)
